By IC50 is commonly meant the concentration that inhibits the measured activity by half. Read a high IC50 as weaker potency.

A value given as a limit tells only on which side of the number the result lay.

One assay addresses farnesyl protein transferase (Homo sapiens, UniProt P49354+P49356). Nature of the assay: FPT IC50 (inhibition of farnesyl protein transferase, in vitro enzyme assay). Type of assay: biochemical. The protocol: (§1) FPT IC50 (inhibition of farnesyl protein transferase, in vitro enzyme assay) and COS Cell IC50 (Cell-Based Assay) were determined following the assay procedures described in WO 95/10516, published Apr. 20, 1995. GGPT IC50 (inhibition of geranylgeranyl protein transferase, in vitro enzyme assay), Cell Mat Assay, and anti-tumor activity (in vivo anti-tumor studies) could be determined by the assay procedures described in WO 95/10516. The disclosure of WO 95/10516 is incorporated herein by reference thereto.
In turn, `CCOC(=O)N1CCC(C2c3ncccc3CCc3cccnc32)CC1` [Example 6, ethyl 4-(6,11-dihydro-5H-cyclohepta[2,1-b:4,5-b']dipyridin-11-yl)-1-piperidinecarboxylate] displayed an IC50 greater than 17000 nM.
On the same count and under the same terms, next, `O=C(Cc1cc[n+]([O-])cc1)N1CCC(C2c3ncccc3CCc3cccnc32)CC1` [Example 8, 4-(6,11-dihydro-5H-cyclohepta[2,1-b: 4,5-b']dipyridin-11-yl)-1-(4-pyridinylacetyl) n1-oxide piperidine]: greater than 1400 nM; `O=C(Cc1cc[n+]([O-])cc1)N1CCC(C2c3ncc(Br)cc3CCc3cc(Br)cnc32)CC1` [Example 13, 4-(3,8-dibromo-6,11-dihydro-5H-cyclohepta [2,1-b:4,5-b']dipyridin-11-yl)-1-(4-pyridinylacetyl) n1-oxide piperidine]: 28 nM; `O=C(Cc1cc[n+]([O-])cc1)N1CCC(C2c3ncccc3CCc3cc(Br)cnc32)CC1` (stereo not drawn) [Example 17, 4-(3-bromo-6,11-dihydro-5H-cyclohepta [2,1-b:4,5-b']dipyridin-11-yl)-1-(4-pyridinylacetyl) n1-oxide piperidine]: 290 nM.
`Cc1cnc2c(c1)CCc1cccnc1C2C1CCN(C(=O)Cc2cc[n+]([O-])cc2)CC1` (stereo not drawn) [Example 18, 4-(3-methyl-6,11-dihydro-5H-cyclohepta [2,1-b:4,5-b']dipyridin-11-yl)-1-(4-pyridinylacetyl) n1-oxide piperidine] yielded an IC50 of 160 nM.

The test system of a further assay is COS Cell. Kind of assay: COS Cell IC50 (Cell-Based Assay). The protocol:
as §1
Compound `O=C(Cc1cc[n+]([O-])cc1)N1CCC(C2c3ncc(Br)cc3CCc3cc(Br)cnc32)CC1` [Example 13, 4-(3,8-dibromo-6,11-dihydro-5H-cyclohepta [2,1-b:4,5-b']dipyridin-11-yl)-1-(4-pyridinylacetyl) n1-oxide piperidine] gave an IC50 of 125 nM.
